This note sets out measurements from patent US20230104487A1, “11-(4-CHLOROPHENYL)-4-(2,3-DIHYDRO-1H-INDOLE-1-CARBONYL)-3,11-DIMETHYL-5,10,DIOXATRICYCLO[7.4.0.0,2,6,]TRIDECA-1,3,6,8-TETRAEN-13-ONE AND DERIVATIVES AS DESTABILIZER OF CRY1 FOR THE TREATMENT OF CIRCADIAN RHYTHM ASSOCIATED DISEASES AND DISORDERS” (KOC UNIVERSITESI, priority 2019, published 2023).

This series can be described thus: Plasma pharmacokinetics in mice. Type of series: in vivo, mouse. The procedure:
C57BL/6J female mice (n=4 per each time point) were treated with 100 mg/kg single dose of FORMULA I intraperitoneally. Blood samples were collected 0, 0.5, 1, 2, 4, 8, 12 and 24 h after administration of FORMULA I by cardiac puncture under isoflurane anesthesia. Plasma was obtained by centrifugation from heparinized tubes and stored at −80° C. until analysis. Brain tissues were quickly removed and stored at −80° C. for further processing. For assessment of the brain exposure of FORMULA I, levels in this tissue were only determined at 2nd (n=2) and 4th (n=2) hours according to maximum concentrations of the molecule in plasma.
Liquid chromatography coupled to tandem mass spectrometry (LC-MS/MS) was used to obtain high mass accuracy data of the analytes in plasma samples for the determination of FORMULA I and Internal standard (IS) Loratadine. The instrument was operated in full scan mode and ion source parameters were optimised for the analytes. The optimized conditions of the electrospray ionization (ESI) source were as follows: gas temperature, 300° C.; gas flow, 10 L/min; nebulizer pressure, 25 psi; capillary voltage, 5500 V. ESI in the positive ion mode provides the best results for FORMULA I. For MS-MS detection, the protonated molecules were selected as precursor ions and the most abundant fragment ions obtained at collision energy of 22-20 eV were monitored as the product ions for FORMULA I and IS. MS-MS analysis was performed in the selected reaction monitoring (SRM) positive ionization mode, using mass transitions for FORMULA I m/z 472.1→353.4 [collision energy (CE)=22 eV] and Fragmentor 234 V, for IS; m/z 383.2→337.2 (CE=20 eV) and fragmentor 140 V. For the separation of the analytes, a conventional reversed-phase LC separation on C18-bonded silica was used, with Methanol: % 0.1 Formic acid (90:10, v/v) mobile phase. FORMULA I was extracted from plasma samples by using liquid-liquid extraction with Methanol. 10 μL of sample was injected into the LC-MS/MS system.
Peak plasma concentration (Cmax) and time to reach peak plasma concentration (tmax) values were directly obtained from the FORMULA I plasma concentration-time curve. The area under the plasma concentration-time curve from […] was calculated by the trapezoidal method. AUC0-∞ was obtained by addition of the extrapolated part after the last sampling time using standard techniques. Other pharmacokinetic parameters of FORMULA I were calculated by the non-compartmental method. Elimination rate constant (kel) was calculated from the terminal points of FORMULA I plasma concentration-time plot and the slope of this line was equal to kel. Terminal elimination half-life (t½) was calculated by ln-linear approximation of terminal points of the data. t½ and kel were interconverted with the following formula: t1/2=ln 2/kel

[1] abbreviates: female, C57BL/6J, mouse, ip, 100 mg/kg, single dose, plasma.

Read-outs that look alike come from different tables or passages of the source.

As for `Cc1c(C(=O)N2CCc3ccccc32)oc2ccc3c(c12)C(=O)CC(C)(c1ccc(Cl)cc1)O3` (stereo not drawn) [FORMULA I, 11-(4-chlorophenyl)-4-(2,3-dihydro-1H-indole-1-carbonyl)-3,11-dimethyl-5,10,dioxatricyclo[7.4.0.0,2,6,]trideca-1,3,6,8-tetraen-13-one], for the setting “100 mg/kg, single dose, i.p.”, the “time plasma level first detected” value came out at 0.5 h and the “time plasma level still quantifiable” value came out at 24 h. Also, the kel (100 mg/kg, single dose, i.p., plasma) turned out to be 0.127 ± 0.01 h⁻¹. Also, under setting [1], the AUC(0-inf) is 5190 ± 3130 ng·h/mL, the concentration peaked (Cmax) at 1150 ± 506 ng/mL and the time of peak concentration (Tmax) lay within 2 to 4 h. Further, the half-life (female, C57BL/6J, mouse, plasma, intraperitoneal, 100 mg/kg, in vivo, mice, read-out: half-life in blood (converted)) was 6 h. For the same compound, the half-life (female, C57BL/6J, mouse, plasma, ip, 100 mg/kg, single dose, i.p., plasma, read-out: t1/2 (converted)) was 5.5 ± 0.33 h. Where the note is “in vivo, mice”, the half-life in blood was roughly 6 h.
